The target of the experiment is T1, NPR-B (Homo sapiens, UniProt P20594).
T1 construct: gene NPR2; endogenous membrane guanylyl cyclase receptor in intact CEPI-17-CL4 cells; NPR-A also expressed; homodimer
T1 sequence (P20594 23-1047): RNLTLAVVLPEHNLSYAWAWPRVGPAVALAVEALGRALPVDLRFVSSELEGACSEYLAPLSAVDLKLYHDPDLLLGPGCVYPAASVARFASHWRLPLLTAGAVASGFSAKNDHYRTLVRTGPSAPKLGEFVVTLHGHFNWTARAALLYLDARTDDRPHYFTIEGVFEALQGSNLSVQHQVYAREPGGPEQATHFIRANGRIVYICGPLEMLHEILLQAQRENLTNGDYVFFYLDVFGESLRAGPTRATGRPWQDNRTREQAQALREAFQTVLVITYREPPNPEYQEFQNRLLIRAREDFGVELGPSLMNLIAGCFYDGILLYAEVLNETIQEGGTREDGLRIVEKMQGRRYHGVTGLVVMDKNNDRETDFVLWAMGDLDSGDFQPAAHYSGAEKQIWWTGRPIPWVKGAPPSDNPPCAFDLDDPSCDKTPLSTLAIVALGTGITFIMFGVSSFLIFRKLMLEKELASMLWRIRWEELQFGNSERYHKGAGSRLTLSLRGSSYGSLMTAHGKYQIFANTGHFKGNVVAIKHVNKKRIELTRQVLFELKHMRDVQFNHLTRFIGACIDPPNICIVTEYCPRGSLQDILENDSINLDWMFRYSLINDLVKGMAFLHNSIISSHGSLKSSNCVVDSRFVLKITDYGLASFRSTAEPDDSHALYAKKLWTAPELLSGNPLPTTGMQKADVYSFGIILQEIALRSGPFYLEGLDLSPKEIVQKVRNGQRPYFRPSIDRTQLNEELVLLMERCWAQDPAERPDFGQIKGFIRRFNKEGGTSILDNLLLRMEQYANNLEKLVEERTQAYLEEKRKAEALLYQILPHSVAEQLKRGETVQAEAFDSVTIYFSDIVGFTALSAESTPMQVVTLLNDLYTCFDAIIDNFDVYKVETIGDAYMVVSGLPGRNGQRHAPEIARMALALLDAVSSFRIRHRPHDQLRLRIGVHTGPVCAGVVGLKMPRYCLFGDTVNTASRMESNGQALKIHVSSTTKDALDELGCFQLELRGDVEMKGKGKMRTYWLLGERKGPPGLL
Briefly: inhibition of CNP fragment-induced cGMP accumulation in CEPI-17-CL4 cells, enzyme immunoassay. The experiment is classed as cell-based. The note with it: 30 nM CNP fragment as agonist, 1 mM IBMX, 23 °C, 20 min pre-incubation; partial inhibition; native cells expressing NPR-A and NPR-B; compound described as NPR-A antagonist.

Experimental findings from article PMC2903464, “NPR-B natriuretic peptide receptors in human corneal epithelium: mRNA, immunohistochemistochemical, protein, and biochemical pharmacology studies” (Molecular Vision, 2010) are described below.

The Ki is the equilibrium dissociation constant of an inhibitor or competing ligand from its target. Lower therefore signals a stronger hold on the target. The molecule `O=C1Nc2ccccc2C1=O` [isatin] returned a Ki of 5.3 ± 1.7 µM.
